Here are results for one molecule from patent publication US20220323406A1, “METHODS AND COMPOSITIONS FOR DIFFERENTIATING STEM CELLS” (Massachusetts Institute of Technology, priority 2019, published 2022).

Data set [1] has as its system small intestine crypts (Paneth, stem, goblet cells). Nature of the data set: Animal study: histological quantification of Paneth, Olfm4+ stem and PAS+ goblet cells per crypt. In kind it is in vivo, mouse. The conditions noted are these: every other day, day 14. The protocol: Following a similar protocol as previously reported for SINE treatment in the context of cancer (Arango et al., 2017; […] Zheng et al., 2014), KPT-330 was administered at a dose 10 mg/kg via oral gavage every other day over a two-week span in C57BL/6 wild-type mice, and body weight was monitored for any clear toxicity. […] Applicants tracked animal weight every other day, and at day 14 collected the proximal and distal thirds of the small intestine for histological quantification of Paneth, stem, and goblet populations (FIG. 26A). […] Samples were prepared for histology by the ‘swiss-roll’ technique, and following staining, were blinded and randomized before manual counting of well-preserved features. […] Applicants additionally quantified the abundance of Olfm4+ stem cells as well as PAS+ goblet cells within the same animals to ascertain whether the effect of SINE treatment was restricted to the Paneth cell compartment (representative images FIG. 30D,E). […] Animal study. 8-10 weeks old wild type C57BL/6NCrl male mice (#027) were purchased from Charles River. Mice were housed under 12 h light/dark cycle and provided food and water ad libitum. 0.01, 0.05, 0.2 or 10 mg/kg of KPT-330 were injected orally using a disposable gavage needle (Cadence Science, #9921) at 10 μL/g weight. KPT-330 was dissolved in DMSO initially and further diluted in sterile PBS containing Pluronic F-68 Non-ionic Surfactant (Gibco, #24040032) and Polyvinylpyrrolidone (PVP, Alfa Aesar, A14315, average M.W. 58,000); the final concentration of DMSO is 2%, Pluronic is 0.5%, and PVP is 0.5%. KPT-330 was administered every other day for two weeks, 7 injections in total (days 0, 2, 4, 6, 8, 10, 12), and mice were sacrificed at day 14. All animal studies are approved by the Committee on Animal Care (CAC) at Massachusetts Institute of Technology. Histology. The small intestine (SI) was collected from mice and divided into three parts. Only proximal and distal SI were kept in PBS, and medial SI was discarded. Each SI was opened longitudinally and washed in PBS. […] Fixed tissues were embedded in paraffin, and 4 μm sections were mounted on slides. For immunohistochemistry, slides were deparaffinized, antigen retrieved using heat-induced epitope retrieval at 97° C. for 20 min using citrate buffer pH 6, and probed with appropriate antibodies followed by DAB staining. For McManus Periodic Acid Schiff (PAS) reaction, slides were deparaffinized, oxidized in periodic acid, and stained with Schiff reagent (Poly Scientific, s272) followed by counterstaining with Harris Hematoxylin. Slides were scanned by Aperio Slide Scanner (Leica) and cells were counted on Aperio eSlide Manager. Slides were randomized before counting, and all cell types were counted in all well-preserved crypts along the longitudinal crypt-villus axis.

For data set [2] the following is noted: mouse, in vivo, po.
The test system of the next data set is ENR+CD organoids. The data set can be described thus: Secondary (validation) screen: ATP (CTG) assay, 2.5-D 384-well ENR+CD organoids. Format: cell-based, mouse. Particulars: 6-day ENR+CD, vs ENR+CD+DMSO.
Data set [3] deals with Paneth, goblet and cycling cells of small intestine. Nature of the data set: KPT-330 treatment in vivo (Example 1), histology of proximal and distal small intestine. Further details: cycling cell number, distal small intestine: dose or concentration left out as unconfirmed.
Data set [4] deals with ENR+CD organoids (ISC to Paneth cell differentiation). The data set can be described thus: Primary screen: CCh-stimulated lysozyme secretion LYZ.S, 2.5-D 384-well ENR+CD organoid differentiation. In kind it is cell-based, mouse. The conditions noted are these: primary screen. The source says: High-throughput screening.

As to `O=C(/C=C\n1cnc(-c2cc(C(F)(F)F)cc(C(F)(F)F)c2)n1)NNc1cnccn1` [KPT-330], the “Olfm4+ stem cells, distal small intestine” value in data set [1] (0.01 mg/kg oral) is reported as “significant increase in Olfm4+ stem cells”. For the same molecule, the “Paneth cells per crypt, distal small intestine” value in data set [1] (0.01 mg/kg oral) is reported as “significant increases in Paneth abundance”. Further, the “Paneth cells per crypt, proximal small intestine” value in data set [1] (0.01 mg/kg oral) and in data set [1] (0.2 mg/kg oral) was “significant increases in Paneth abundance” each time. Further, the “PAS+ goblet cell population” value in data set [1] (0.01-0.2 mg/kg oral) was “did not overserve any significant changes”. Besides, the “toxicity to mice (body weight)” value in data set [2] was “toxic to mice”. In addition, the Dose.FC.CTG is reported as 0.126 log2 fold change with ENR+CD organoids (0.02 uM), 0.029 log2 fold change in the data set with ENR+CD organoids (0.04 uM), 0.141 log2 fold change in the data set on ENR+CD organoids (0.08 uM) and 0.120 log2 fold change with ENR+CD organoids ([…]). Besides, the “Paneth cell number, distal small intestine” value in data set [3] (high dose) is listed as “decreased Paneth cells”. Further, the “cycling cell number, distal small intestine” value in data set [3] (low dose) is reported as “significant increase in cycling cell number”. Besides, the “Paneth cell number, proximal small intestine” value in data set [3] (oral gavage, 1 week) is on record as “no significant shift in Paneth cell number”. Besides, the effect by histology entry in data set [3] (oral gavage, 1 week) was “pro-differentiation effect”. Further, the “goblet cell numbers, proximal/distal small intestine” value in data set [3] (oral gavage, 1 week) is given as “no significant shift in goblet cell numbers”. The “Dose.FC.LYZ.S (log2 fold change)” value in data set [4] (dose 0.08 uM) is recorded as 0.259; in data set [4] (dose 0.40 uM) it was −0.282; in data set [4] (dose 2.00 uM) it was −0.390; in data set [4] (dose 10.00 uM), −0.423.
